Experiment: Release test in phosphate buffer saline pH 7.4 (standard body-fluid single compartment release experiment)
Type: physicochemical
Settings: PBS pH 7.4, samples at 0, 1, 2, 4, 24 and 96 hours, HPLC; comparative statement
Method: Example Performance in a standard body-fluid single compartment release experiment Release Test: 100 ml of phosphate buffer saline pH 7.4 (PBS, British Pharmacopoeia) are given to a 200 ml volumetric flask. […] PBS-buffer is filled up to 200 ml. API release studies were performed in triplicate. Samples (2 ml) for HPLC analysis were taken at 0, 1, 2, 4, 24 and 96 hours and centrifuged for 5 minutes at 13400 rpm the supernatant was injected according to the HPLC method in Table 5. At 2, 4 and 24 hours 100 ml of the dissolution medium were pulled and 100 ml of fresh buffer was added (PBS 7.4). [table]

## O=C1Nc2ccc(Cl)cc2[C@@](C#CC2CC2)(C(F)(F)F)O1 [Efavirenz]
  release / release rate of the active ingredient: much higher
